Laboratory results as given in patent publication US9815796B2 (Merck Sharp & Dohme Corp., priority 2013, dated 2017).
Read-outs that look alike come from different tables or passages of the source.

What was measured:
Rhesus PDE2A3 = Rhesus PDE2A3 (Macaca mulatta, UniProt B3VTJ2); assay: PDE2 fluorescence polarization (IMAP FP) inhibition assay, rhesus enzyme; type: biochemical, rhesus macaque
Summary of the method: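 Rhesus PDE2A3 came from lysate of transiently transfected AD293 cells, diluted to give 20% substrate conversion. Substrate was 50 nM FAM-cAMP with 1 uM cGMP activator in Tris pH 7.2/MgCl2 buffer, run 60 min at room temperature over 10-point 3-fold dilutions in 1% DMSO. Read-out was IMAP fluorescence polarization (mP) after ≥1 h binding.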

human PDE2A1 = human PDE2A1 (Homo sapiens (Human), UniProt O00408); assay: IMAP FP PDE selectivity panel, human PDE2A1; type: biochemical
Sequence of human PDE2A1 (O00408 other isoform, or with tags, fused parts or gaps): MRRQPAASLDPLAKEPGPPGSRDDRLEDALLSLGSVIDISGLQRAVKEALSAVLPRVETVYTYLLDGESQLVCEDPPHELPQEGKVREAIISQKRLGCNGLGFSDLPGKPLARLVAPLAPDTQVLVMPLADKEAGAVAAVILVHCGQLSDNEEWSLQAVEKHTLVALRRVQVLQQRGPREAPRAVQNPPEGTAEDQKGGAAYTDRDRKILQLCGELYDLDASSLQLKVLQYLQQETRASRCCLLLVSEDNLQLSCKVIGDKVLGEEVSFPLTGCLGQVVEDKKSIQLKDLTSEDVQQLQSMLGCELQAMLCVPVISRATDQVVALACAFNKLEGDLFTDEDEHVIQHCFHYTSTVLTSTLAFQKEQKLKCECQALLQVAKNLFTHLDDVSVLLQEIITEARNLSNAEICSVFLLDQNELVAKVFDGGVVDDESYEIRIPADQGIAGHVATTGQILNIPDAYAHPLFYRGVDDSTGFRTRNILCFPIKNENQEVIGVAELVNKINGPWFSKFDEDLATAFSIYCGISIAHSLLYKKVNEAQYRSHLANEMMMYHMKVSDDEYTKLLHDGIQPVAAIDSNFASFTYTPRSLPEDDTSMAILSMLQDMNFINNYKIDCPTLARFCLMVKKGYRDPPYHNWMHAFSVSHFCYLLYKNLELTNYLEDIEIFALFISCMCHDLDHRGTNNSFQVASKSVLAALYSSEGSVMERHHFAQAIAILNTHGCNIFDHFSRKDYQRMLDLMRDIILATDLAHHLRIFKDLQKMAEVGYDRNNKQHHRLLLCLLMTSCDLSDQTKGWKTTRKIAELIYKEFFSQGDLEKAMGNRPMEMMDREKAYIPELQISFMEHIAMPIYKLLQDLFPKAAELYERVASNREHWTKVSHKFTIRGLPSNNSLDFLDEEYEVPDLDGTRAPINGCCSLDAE
Summary of the method: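 GST-tagged human PDE2A1 expressed in insect cells, run at room temperature for 60 min with 50 nM FAM-cAMP containing 1000 nM cGMP, pH 7.2 Tris/MgCl2 buffer. IMAP fluorescence polarization read after binding step.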

[1] = Rhesus PDE2, Lab A, read-out: Rhesus PDE2 Ki (nM) - Lab A
[2] = Human PDE2, Lab A, read-out: Human PDE2 Ki (nM) - Lab A
[3] = Rhesus PDE2, Lab B, read-out: Rhesus PDE2 Ki (nM) - Lab B
[4] = Human PDE2, Lab B, read-out: Human PDE2 Ki (nM) - Lab B

Sequence of Rhesus PDE2A3 (B3VTJ2 1-941): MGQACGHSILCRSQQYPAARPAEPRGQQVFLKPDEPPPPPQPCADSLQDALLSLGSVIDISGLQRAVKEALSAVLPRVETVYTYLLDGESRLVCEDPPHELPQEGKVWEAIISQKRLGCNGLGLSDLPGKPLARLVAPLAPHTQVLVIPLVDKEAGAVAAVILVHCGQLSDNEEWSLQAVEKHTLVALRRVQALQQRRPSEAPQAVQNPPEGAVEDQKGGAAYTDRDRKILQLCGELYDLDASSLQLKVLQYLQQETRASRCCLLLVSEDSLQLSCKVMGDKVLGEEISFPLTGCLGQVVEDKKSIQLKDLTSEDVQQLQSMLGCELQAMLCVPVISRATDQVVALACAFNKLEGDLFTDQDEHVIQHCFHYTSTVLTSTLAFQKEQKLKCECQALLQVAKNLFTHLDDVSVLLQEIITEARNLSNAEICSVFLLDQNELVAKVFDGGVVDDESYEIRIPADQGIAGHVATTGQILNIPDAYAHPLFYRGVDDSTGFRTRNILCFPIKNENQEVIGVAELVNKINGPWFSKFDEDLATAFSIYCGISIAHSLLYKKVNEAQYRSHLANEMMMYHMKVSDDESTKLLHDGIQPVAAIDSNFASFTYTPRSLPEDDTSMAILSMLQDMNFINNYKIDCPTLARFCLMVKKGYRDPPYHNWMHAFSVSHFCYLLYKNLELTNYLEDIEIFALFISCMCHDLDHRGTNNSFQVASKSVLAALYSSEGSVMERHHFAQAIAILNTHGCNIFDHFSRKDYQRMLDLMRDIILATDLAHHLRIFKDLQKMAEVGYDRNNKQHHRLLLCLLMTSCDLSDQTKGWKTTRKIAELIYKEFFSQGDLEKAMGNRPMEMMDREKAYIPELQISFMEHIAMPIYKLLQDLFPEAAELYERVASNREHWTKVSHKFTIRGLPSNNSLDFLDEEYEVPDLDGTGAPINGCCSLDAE

SMILES | Ki (Rhesus PDE2A3; [1]) | Ki (human PDE2A1; [2]) | Ki (Rhesus PDE2A3; [3]) | Ki (human PDE2A1; [4])
COc1ccc(Cc2nc(C(=O)NC3(c4ccc(C(F)(F)F)cc4)CC3)cc(=O)[nH]2)cc1OC [Example 3, 2-(3,4-dimethoxybenzyl)-6-oxo-N-{1-[4-(trifluoromethyl)phenyl]-cyclopropyl}-1,6-dihydropyrimidine-4-carboxamide] | 0.54 nM | 0.45 nM | – | –
CC[C@@H](NC(=O)c1cc(=O)[nH]c(C2CC2)n1)c1ccc(C(F)(F)F)c(F)c1 [Example 254, 2-cyclopropyl-N-{(1R)-1-[3-fluoro-4-(trifluoromethyl)phenyl]propyl}-6-oxo-1,6-dihydropyrimidine-4-carboxamide] | 17 nM | ~13 nM | 23 nM | 22 nM
C[C@@H](NC(=O)c1cc(=O)[nH]c(C2CC2)n1)c1ccc(-c2ccccc2)cc1 [Example 144, N-[(1R)-1-biphenyl-4-ylethyl]-2-cyclopropyl-6-oxo-1,6-dihydropyrimidine-4-carboxamide] | 16 nM | 6 nM | – | –
CC(C)[C@@H](NC(=O)c1cc(=O)[nH]c(-c2ccccc2)n1)c1ccc(C(F)(F)F)cc1 [Example 167, N-{(1R)-2-methyl-1-[4-(trifluoromethyl)phenyl]propyl}-6-oxo-2-phenyl-1,6-dihydropyrimidine-4-carboxamide] | 2.3 nM | 1.9 nM | 3.5 nM | 2.3 nM
O=C(NC1(c2ccc(OC(F)(F)F)c(F)c2)CC1)c1cc(=O)[nH]c(-c2ccccc2)n1 [Example 157, N-{1-[3-fluoro-4-(trifluoromethoxy)phenyl]cyclopropyl}-6-oxo-2-phenyl-1,6-dihydropyrimidine-4-carboxamide] | 4.8 nM | 3.1 nM | – | –
O=C(N[C@@H](c1ccc(SC(F)(F)F)cc1)C1CC1)c1cc(=O)[nH]c(-c2ccccc2)n1 [Example 178, N-[(R)-cyclopropyl{4-[(trifluoromethyl)sulfanyl]phenyl}methyl]-6-oxo-2-phenyl-1,6-dihydropyrimidine-4-carboxamide] | 3.3 nM | 2.4 nM | – | –
CC(C)(NC(=O)c1cc(=O)[nH]c(-c2ccccc2)n1)c1ccccc1Br [Example 373, N-[1-(2-bromophenyl)-1-methylethyl]-6-oxo-2-phenyl-1,6-dihydropyrimidine-4-carboxamide] | 155 nM | – | 225 nM | 183 nM
Cc1nc(C(=O)N[C@@H](c2ccc(C(F)(F)F)c(F)c2)C(C)(C)C)cc(=O)[nH]1 [Example 59] | – | – | 6.4 nM | 4.5 nM
CC(NC(=O)c1cc(=O)[nH]c(-c2ccccc2)n1)c1ccc2c(c1)OCCO2 (centres unmarked) [Example 360, N-[1-(2,3-dihydro-1,4-benzodioxin-6-yl)ethyl]-6-oxo-2-phenyl-1,6-dihydropyrimidine-4-carboxamide] | 222 nM | – | 459 nM | ~488 nM
COc1ccc(Cc2nc(C(=O)N[C@@H](c3ccc(SC(F)(F)F)cc3)C(C)C)cc(=O)[nH]2)cc1 [Example 469, 2-(4-methoxybenzyl)-N-[(1R)-2-methyl-1-{4-[(trifluoromethyl)sulfanyl]phenyl}propyl]-6-oxo-1,6-dihydropyrimidine-4-carboxamide] | – | – | 0.96 nM | 0.91 nM
C[C@@H](NC(=O)c1cc(=O)[nH]c(-c2ccccc2)n1)c1ccc(SC(F)(F)F)c(F)c1 [Example 398, N-[(1R)-1-{3-fluoro-4-[(trifluoromethyl)sulfanyl]phenyl}eth-yl]-6-oxo-2-phenyl-1,6-dihydropyrimidine-4-carboxamide] | – | – | 2.9 nM | 2.3 nM
C[C@@H](NC(=O)c1cc(=O)[nH]c(C2CC2)n1)c1ccc(C(F)(F)F)cc1F [Example 237, 2-cyclopropyl-N-{(1R)-1-[2-fluoro-4-(trifluoromethyl)phenyl]ethyl}-6-oxo-1,6-dihydropyrimidine-4-carboxamide] | 61 nM | 35 nM | – | –
CC[C@@H](NC(=O)c1cc(=O)[nH]c(C)n1)c1ccc(OC(F)(F)F)c(F)c1 [Example 39, N-{(1R)-1-[3-fluoro-4-(trifluoromethoxy)phenyl]propyl}-2-methyl-6-oxo-1,6-dihydropyrimidine-4-carboxamide] | 17 nM | 8.8 nM | – | –
COc1ccc(Cc2nc(C(=O)N[C@@H](c3ccc(S(F)(F)(F)(F)F)cc3)C3CC3)cc(=O)[nH]2)cc1F [Example 510, N-{(R)-cyclopropyl[4-(pentafluoro-λ^6-sulfanyl)phenyl]methyl}-2-(3-fluoro-4-methoxybenzyl)-6-oxo-1,6-dihydropyrimidine-4-carboxamide] | – | – | 3.3 nM | 2.8 nM
CC(C)[C@@H](NC(=O)c1cc(=O)[nH]c(-c2ccccc2)n1)c1ccc(SC(F)(F)F)cc1 [Example 419, N-[(1R)-2-methyl-1-{4-[(trifluoromethyl)sulfanyl]phenyl}pro-pyl]-6-oxo-2-phenyl-1,6-dihydropyrimidine-4-carboxamide] | – | – | 3.3 nM | 2.9 nM
COc1ccc(Cc2nc(C(=O)N[C@H](C)c3ccc(C(F)(F)F)cc3)cc(=O)[nH]2)cc1 [Example 136, 2-(4-methoxybenzyl)-6-oxo-N-{(1R)-1-[4-(trifluoromethyl)phenyl]ethyl}-1,6-dihydropyrimidine-4-carboxamide] | 6.3 nM | 2.2 nM | – | –
COc1ccc2cc(C(C)NC(=O)c3cc(=O)[nH]c(-c4ccccc4)n3)ccc2c1 (centres unmarked) [Example 378, N-[1-(6-methoxynaphthalen-2-yl)ethyl]-6-oxo-2-phenyl-1,6-dihydropyrimidine-4-carboxamide] | 26 nM | – | 41 nM | 41 nM
COc1ccc(C(C)(C)c2nc(C(=O)N[C@@H](c3ccc(SC(F)(F)F)cc3)C3CC3)cc(=O)[nH]2)cc1 [Example 500, N-[(R)-cyclopropyl{4-[(trifluoromethyl)sulfanyl]phenyl}methyl]-2-[1-(4-methoxyphenyl)-1-methylethyl]-6-oxo-1,6-dihydropyrimidine-4-carboxamide] | – | – | 79 nM | 74 nM
Cc1nc(C(=O)N[C@@H](c2ccc(SC(F)(F)F)cc2)C(C)(C)C)cc(=O)[nH]1 [Example 58, (R)-N-(2,2-dimethyl-1-(4-((trifluoromethyl)thio)phenyl)propyl)-2-methyl-6-oxo-1,6-dihydropyrimidine-4-carboxamide] | – | – | 2.5 nM | 1.7 nM
C[C@@H](NC(=O)c1cc(=O)[nH]c(C2CC2)n1)c1ccc(C(F)(F)F)c(F)c1 [Example 234, 2-cyclopropyl-N-{(1R)-1-[3-fluoro-4-(trifluoromethyl)phenyl]ethyl}-6-oxo-1,6-dihydropyrimidine-4-carboxamide] | 20 nM | 18 nM | – | –
CC[C@@H](NC(=O)c1cc(=O)[nH]c(C)n1)c1ccc(S(F)(F)(F)(F)F)cc1 [Example 51, 2-methyl-6-oxo-N-{(1R)-1-[4-(pentafluoro-λ^6-sulfanyl)phenyl]propyl}-1,6-dihydropyrimidine-4-carboxamide] | 18 nM | ~6.1 nM | 18 nM | 20 nM
C[C@@H](NC(=O)c1cc(=O)[nH]c(C2CC2)n1)c1ccc(SC(F)(F)F)c(F)c1 [Example 243, 2-cyclopropyl-N-[(1R)-1-{3-fluoro-4-[(trifluoromethyl)sulfanyl]phenyl}ethyl]-6-oxo-1,6-dihydropyrimidine-4-carboxamide] | 3.6 nM | – | 6.7 nM | 5.8 nM
Cc1nc(C(=O)N[C@@H](c2ccc(OC(F)(F)F)c(F)c2)C(C)C)cc(=O)[nH]1 [Example 38, N-{(1R)-1-[3-fluoro-4-(trifluoromethoxy)phenyl]-2-methylpropyl}-2-methyl-6-oxo-1,6-dihydropyrimidine-4-carboxamide] | 7.8 nM | 5.6 nM | – | –
CC(C)[C@@H](NC(=O)c1cc(=O)[nH]c(-c2ncccn2)n1)c1ccc(C(F)(F)F)cc1 [Example 73, N-{(1R)-2-methyl-1-[4-(trifluoromethyl)phenyl]propyl}-6-oxo-1,6-dihydro-2,2′-bipyrimidine-4-carboxamide] | 4.1 nM | – | 4.9 nM | 5.3 nM
Cc1nc(C(=O)N[C@@H](c2ccc(OC(F)F)cc2)C2CC2)cc(=O)[nH]1 [Example 610, N-{(R)-cyclopropyl[4-(difluoromethoxy)phenyl]methyl}-2-methyl-6-oxo-1,6-dihydropyrimidine-4-carboxamide] | – | – | 68 nM | 70 nM
Cc1nc(C(=O)N[C@@H](c2ccc(OC(F)F)c(F)c2)C2(C)CC2)cc(=O)[nH]1 [Example 631, N-[(R)-[4-(difluoromethoxy)-3-fluorophenyl](1-methylcyclopropyl)methyl]-2-methyl-6-oxo-1,6-dihydropyrimidine-4-carboxamide] | – | – | – | 13 nM
CC(C)(C)C(NC(=O)c1cc(=O)[nH]c(-c2ncco2)n1)c1ccc(C(F)(F)F)cc1 (single isomer, unassigned) [Example 683, (S)- or (R)-N-(2,2-dimethyl-1-(4-(trifluoromethyl)phenyl)propyl)-2-(oxazol-2-yl)-6-oxo-1,6-dihydropyrimidine-4-carboxamide] | – | – | – | > 2960 nM
Cc1nc(C(=O)N[C@@H](c2ccc(C(F)F)cc2)C(C)C)cc(=O)[nH]1 [Example 648, N-{(1R)-1-[4-(difluoromethyl)phenyl]-2-methylpropyl}-2-methyl-6-oxo-1,6-dihydropyrimidine-4-carboxamide] | – | – | – | 34 nM
CC(C)[C@@H](NC(=O)c1cc(=O)[nH]c(-c2ncccn2)n1)c1ccc(OC(F)(F)F)c(Br)c1 [Example 580, N-{(1R)-1-[3-bromo-4-(trifluoromethoxy)phenyl]-2-methylpropyl}-6-oxo-1,6-dihydro-2,2′-bipyrimidine-4-carboxamide] | – | – | – | 38 nM
